Experimental data taken from patent publication US4393225A, “AI-77 Compounds and pharmaceutically acceptable salts thereof” (Asahi Kasei Kogyo Kabushiki Kaisha, priority 1979, dated 1983).
Read-outs that look alike come from different tables or passages of the source.

Tested on: ulcer
Experiment: Anti-ulcer test (restraint and water immersion ulcer in rats, i.p.)
Format: in vivo, Male Wistar rats
Details: for anti-ulcer activity (in words): rat, in vivo; for inhibition in vivo at 50 mg/kg: Rattus norvegicus, ip, read-out: % Inhibition of Ulcer
Experimental: The anti-ulcer and anti-edema activity of the compounds was evaluated in efficacy tests described below.
Male Wistar rats weighing about 150 g on average were not fed for 24 hours before the test. Then a solution or suspension of a predetermined concentration of the test compound in physiological saline was administered to them intraperitoneally. One hour after the administration,each rat was restrained in a net cage and submerged in a water both (21° C.) from the tail to xiphistrenun for 6 hours. Test animals were then killed (by dislocation of the cervical vertebrae), the stomach was removed and incised along the curvatura ventriculi major, and the inside wall of the stomach was pathologically examined under microscopic observation. Rats in which the occurrence of an ulceration was substantially not observed were rated O, while others were rated 0.5, 1, 2 or 3, depending on the severity of the ulcer development. The percent inhibition of ulcer was calculated by the following formula: [formula]

Row | SMILES | inhibition in vivo at 50 mg/kg (50 mg/kg i.p.) | other results
1 | CC(C)CC(NC(=N)C(O)C(O)C(N)CC(=O)O)C1Cc2cccc(O)c2C(=O)O1 (centres unmarked) [AI-77-A] |  | anti-ulcer activity (in words): high anti-ulcer activity
2 | CC(C)CC(NC(=O)C(O)C(O)C(N)CC(=O)O)C1Cc2cccc(O)c2C(=O)O1 (centres unmarked) [AI-77-B] |  | anti-ulcer activity (in words): high anti-ulcer activity
3 | CCCC(=O)NC1CC(=O)OC1C(O)C(=O)NC(CC(C)C)C1Cc2cccc(O)c2C(=O)O1 (centres unmarked) [IIIa-1-3] | 66% | 
4 | CC(C)CC(NC(=O)C(O)C1OC(=O)CC1NC(=O)C(C)C)C1Cc2cccc(O)c2C(=O)O1 (centres unmarked) [IIIa-1-4] | 66% | 
5 | CC(C)CC(=O)NC1CC(=O)OC1C(O)C(=O)NC(CC(C)C)C1Cc2cccc(O)c2C(=O)O1 (centres unmarked) [IIIa-1-5] |  | inhibition in vivo at 50 mg/kg: 66%
6 | CCCCC(=O)NC1CC(=O)OC1C(O)C(=O)NC(CC(C)C)C1Cc2cccc(O)c2C(=O)O1 (centres unmarked) [IIIa-1-6] |  | inhibition in vivo at 50 mg/kg: 66%
7 | CCCCCC(=O)NC1CC(=O)OC1C(O)C(=O)NC(CC(C)C)C1Cc2cccc(O)c2C(=O)O1 (centres unmarked) [IIIa-1-7] | 66% | 
8 | CCCCCCC(=O)NC1CC(=O)OC1C(O)C(=O)NC(CC(C)C)C1Cc2cccc(O)c2C(=O)O1 (centres unmarked) [IIIa-1-8] | 66% | 
9 | CCCCCCCC(=O)NC1CC(=O)OC1C(O)C(=O)NC(CC(C)C)C1Cc2cccc(O)c2C(=O)O1 (centres unmarked) [IIIa-1-9] | 66% | 
10 | CCCCCCCCCCCC(=O)NC1CC(=O)OC1C(O)C(=O)NC(CC(C)C)C1Cc2cccc(O)c2C(=O)O1 (centres unmarked) [IIIa-1-10] | 66% | 
11 | CCCCCCCCCCCCCCCCCC(=O)NC1CC(=O)OC1C(O)C(=O)NC(CC(C)C)C1Cc2cccc(O)c2C(=O)O1 (centres unmarked) [IIIa-1-11] | 44% | 
12 | CC(C)CC(NC(=O)C(O)C1OC(=O)CC1NC(=O)C(Cl)(Cl)Cl)C1Cc2cccc(O)c2C(=O)O1 (centres unmarked) [IIIa-1-12] | 66% | 
13 | CCCCCCCC/C=C\CCCCCCCC(=O)NC1CC(=O)OC1C(O)C(=O)NC(CC(C)C)C1Cc2cccc(O)c2C(=O)O1 (centres unmarked) [IIIa-1-13] | 44% | 
14 | CC(C)CC(NC(=O)C(O)C1OC(=O)CC1NC(=O)c1ccccc1)C1Cc2cccc(O)c2C(=O)O1 (centres unmarked) [IIIa-1-14] | 56% | 
15 | CC(C)CC(NC(=O)C(O)C1OC(=O)CC1NC(=O)c1ccc2ccccc2c1)C1Cc2cccc(O)c2C(=O)O1 (centres unmarked) [IIIa-1-15] | 44% | 
16 | CC(C)CC(NC(=O)C(O)C1OC(=O)CC1NC(=O)C12CC3CC(CC(C3)C1)C2)C1Cc2cccc(O)c2C(=O)O1 (centres unmarked) [IIIa-1-16] | 56% | 
17 | CC(=O)n1cc(C(=O)NC2CC(=O)OC2C(O)C(=O)NC(CC(C)C)C2Cc3cccc(O)c3C(=O)O2)c2ccccc21 (centres unmarked) [IIIa-1-17] | 66% | 
18 | CC(C)CC(NC(=O)C(O)C1OC(=O)CC1NC(=O)C1CC1)C1Cc2cccc(O)c2C(=O)O1 (centres unmarked) [IIIa-1-18] |  | inhibition in vivo at 50 mg/kg: 66%
19 | CC(C)CC(NC(=O)C(O)C1OC(=O)CC1NC(=O)CCCC1CCCCC1)C1Cc2cccc(O)c2C(=O)O1 (centres unmarked) [IIIa-1-19] | 66% | 
20 | CC(C)CC(NC(=O)C(O)C1OC(=O)CC1NC(=O)Cc1ccccc1)C1Cc2cccc(O)c2C(=O)O1 (centres unmarked) [IIIa-1-20] | 66% | 
21 | Cc1c(CC(=O)NC2CC(=O)OC2C(O)C(=O)NC(CC(C)C)C2Cc3cccc(O)c3C(=O)O2)ccc2ccccc12 (centres unmarked) [IIIa-1-21] | 56% | 
22 | CC(C)CC(NC(=O)C(O)C1OC(=O)CC1NC(=O)c1ccco1)C1Cc2cccc(O)c2C(=O)O1 (centres unmarked) [IIIa-1-22] | 66% | 
23 | CC(C)CC(NC(=O)C(O)C1OC(=O)CC1NC(=O)C1CCCO1)C1Cc2cccc(O)c2C(=O)O1 (centres unmarked) [IIIa-1-23] | 66% | 
24 | CC(C)CC(NC(=O)C(O)C1OC(=O)CC1NC(=O)CC1CCCCO1)C1Cc2cccc(O)c2C(=O)O1 (centres unmarked) [IIIa-1-24] | 66% | 
25 | CC(C)CC(NC(=O)C(O)C1OC(=O)CC1NC(=O)c1cccs1)C1Cc2cccc(O)c2C(=O)O1 (centres unmarked) [IIIa-1-25] | 66% | 
26 | CC(C)CC(NC(=O)C(O)C1OC(=O)CC1NC(=O)CCCc1cccs1)C1Cc2cccc(O)c2C(=O)O1 (centres unmarked) [IIIa-1-26] | 66% | 
